The results in this text go back to patent US11142525B2 (Pfizer Inc., priority 2018, dated 2021).

pIC50, pKi: −log10 of the molar value. Where two headings read alike, the source gives them in different places.

For assay [1], the system named is phospho-SLP-76 (Ser376) in Jurkat cells. Put plainly: Phospho-SLP-76 (Ser376) Homogeneous Time Resolved Fluorescence (HTRF) assay in Jurkat cells. The assay is classed as cell-based. The settings on record: Homo sapiens, read-out: SLP76 Assay_IC50. On the procedure:
Jurkat cells were seeded at 90,000 cells/well in 90 uL of RPMI1640 growth medium containing 10% FBS and incubated at 37° C. with 5% CO2 overnight. The following day, compounds were serially diluted from a 10 mM top dose for an 11-point 3 fold dilution curve in DMSO. Compounds were intermediately diluted 1:100 into growth media prior to diluting 1:10 on cells for final concentration 10 μM to 0.1 nM in 0.1% DMSO. After 30 minutes pre-treatment with compounds, the cells were stimulated using 200 μg/mL of F(ab)2 complexed anti-CD3 (clone UCTH1) for 15 min at 37° C. with 5% CO2. Stimulation was stopped with ice cold PBS and cells were harvested by centrifugation before lysis in Cisbio lysis buffer (Cisbio, Bedford, Mass.). Lysates were transferred to white, low-volume plates containing anti-phospho-SLP-76-Cryptate plus anti-phospho-SLP-76-d2 HTRF antibodies and incubated overnight at room temperature protected from light according to the manufacturer's protocol (Cisbio, Bedford, Mass.). HTRF was measured on a Perkin Elmer Envision and IC50 values were calculated by concentration-response curve fitting utilizing four-parameter nonlinear regression analyses.

Assay [2] has as its target human full-length recombinant HPK1 (Homo sapiens (Human), UniProt Q92918). Put plainly: HPK1 biochemical enzyme assay, microfluidic mobility shift assay (MSA). The settings on record: read-out: HPK1 Enzyme Assay_Ki. How it is done: HPK1 enzyme inhibition was measured using a microfluidic mobility shift assay (MSA). […] The reactions were conducted for 60 min at 37° C., stopped by the addition of 50 μL of 0.015 M EDTA, pH 8, and the extent of reactions (˜15-20% conversion with no inhibitor) was determined after electrophoretic separation of the fluorescently labeled peptide substrate and phosphorylated product on an LabChip EZ Reader II (PerkinElmer, Inc., Waltham, Mass.). […]

[3] abbreviates: Phospho-SLP-76 (Ser376) HTRF, anti-CD3 stimulation.
[4] abbreviates: mobility shift assay, 75 μM ATP, Morrison equation, tight-binding competitive inhibition.
Setting [5] is: 30 min pre-treatment, anti-CD3 stimulation 15 min, HTRF.

human full-length recombinant HPK1, sequence (Q92918 whole entry): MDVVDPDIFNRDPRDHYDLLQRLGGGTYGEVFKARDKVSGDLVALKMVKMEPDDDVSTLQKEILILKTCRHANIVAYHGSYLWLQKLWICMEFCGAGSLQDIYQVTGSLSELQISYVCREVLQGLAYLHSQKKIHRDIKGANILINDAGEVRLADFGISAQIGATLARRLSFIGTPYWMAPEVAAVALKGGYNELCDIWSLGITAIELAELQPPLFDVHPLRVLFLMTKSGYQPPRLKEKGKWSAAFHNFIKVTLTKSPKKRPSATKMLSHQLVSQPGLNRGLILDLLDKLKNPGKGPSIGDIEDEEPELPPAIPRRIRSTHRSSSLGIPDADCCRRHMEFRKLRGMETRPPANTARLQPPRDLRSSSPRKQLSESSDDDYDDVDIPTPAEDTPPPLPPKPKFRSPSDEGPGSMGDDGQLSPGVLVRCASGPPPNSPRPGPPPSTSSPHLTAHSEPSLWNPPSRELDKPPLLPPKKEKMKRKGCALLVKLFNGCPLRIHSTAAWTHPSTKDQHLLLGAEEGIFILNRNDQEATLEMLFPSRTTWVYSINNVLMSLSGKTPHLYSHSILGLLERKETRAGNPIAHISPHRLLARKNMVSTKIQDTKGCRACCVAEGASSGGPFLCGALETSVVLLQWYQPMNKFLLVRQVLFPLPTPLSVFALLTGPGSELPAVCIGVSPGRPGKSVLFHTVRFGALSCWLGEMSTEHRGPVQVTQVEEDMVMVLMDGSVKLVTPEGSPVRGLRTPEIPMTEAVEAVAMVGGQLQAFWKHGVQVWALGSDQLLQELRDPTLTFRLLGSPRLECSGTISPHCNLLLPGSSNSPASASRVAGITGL

`CNCc1nc(N2CCCC2(C)C)cc2c1CN(c1cccc(-c3nncn3C(C)C)n1)C2=O` [Example 109, 6-(2,2-dimethylpyrrolidin-1-yl)-4-[(methylamino)methyl]-2-{6-[4-(propan-2-yl)-4H-1,2,4-triazol-3-yl]pyridin-2-yl}-2,3-dihydro-1H-pyrrolo[3,4-c]pyridin-1-one]: the pIC50 in assay [1] (setting [3]) is 7.92. In addition, the pKi in assay [2] (HPK1 mobility shift assay) is 10.22.

`CNCc1nc(N2[C@H](C)C[C@H]2C)cc2c1CN(c1cccc(-c3nncn3C(C)C)n1)C2=O` [Example 3, 6-[(2R,4R)-2,4-dimethylazetidin-1-yl]-4-[(methylamino)methyl]-2-{6-[4-(propan-2-yl)-4H-1,2,4-triazol-3-yl]pyridin-2-yl}-2,3-dihydro-1H-pyrrolo[3,4-c]pyridin-1-one]: the pKi in assay [2] (setting [4]) is 9.11.

Take `CNCc1nc(NC)cc2c1CN(c1cccc(-c3nncn3C(C)C)n1)C2=O` [Example 24]: the pIC50 in assay [1] (setting [5]) was 6.31.

As for `CCCn1cnnc1-c1cccc(N2Cc3c(cc(N4CCC[C@H]4C)nc3CNC)C2=O)n1` [Example 55, 4-[(methylamino)methyl]-6-[(2R)-2-methylpyrrolidin-1-yl]-2-[6-(4-propyl-4H-1,2,4-triazol-3-yl)pyridin-2-yl]-2,3-dihydro-1H-pyrrolo[3,4-c]pyridin-1-one], the pKi in assay [2] (setting [4]) was more than 10.22.

On to `CCCn1cnnc1-c1cccc(N2Cc3c(cc(N(CC)C(C)C)nc3CNC)C2=O)n1` [Example 99, 6-[ethyl(propan-2-yl)amino]-4-[(methylamino)methyl]-2-[6-(4-propyl-4H-1,2,4-triazol-3-yl)pyridin-2-yl]-2,3-dihydro-1H-pyrrolo[3,4-c]pyridin-1-one], for which the pKi in assay [2] (HPK1 mobility shift assay) is 9.08.

As to `CCCn1c(C)nnc1-c1cccc(N2Cc3c(cc(N4CCC[C@H]4C)nc3CN)C2=O)n1` [Example 133, 4-(aminomethyl)-2-[6-(5-methyl-4-propyl-4H-1,2,4-triazol-3-yl)pyridin-2-yl]-6-[(2R)-2-methylpyrrolidin-1-yl]-2,3-dihydro-1H-pyrrolo[3,4-c]pyridin-1-one], the pIC50 in assay [1] (setting [3]) is 6.63.

For `CCCn1cnnc1-c1cccc(N2Cc3c(cc(N(C)C(C)C)nc3CNC)C2=O)n1` [Example 63, 4-[(methylamino)methyl]-6-[methyl(propan-2-yl)amino]-2-[6-(4-propyl-4H-1,2,4-triazol-3-yl)pyridin-2-yl]-2,3-dihydro-1H-pyrrolo[3,4-c]pyridin-1-one], the pKi in assay [2] (setting [4]) was more than 10.05.

On to `CCCn1c(C)nnc1-c1cccc(N2Cc3c(cc(N(C)C(C)C)nc3CNC)C2=O)n1` [Example 64, 4-[(methylamino)methyl]-6-[methyl(propan-2-yl)amino]-2-[6-(5-methyl-4-propyl-4H-1,2,4-triazol-3-yl)pyridin-2-yl]-2,3-dihydro-1H-pyrrolo[3,4-c]pyridin-1-one], for which, in assay [2] (setting [4]), the pKi was more than 9.77.

Take `CNCc1nc(N2[C@H]3CC[C@@H]2CC3)cc2c1CN(c1cccc(-c3nncn3C(C)C)n1)C2=O` [Example 25, 6-[(1s,4s)-7-azabicyclo[2.2.1]hept-7-yl]-4-[(methylamino)methyl]-2-{6-[4-(propan-2-yl)-4H-1,2,4-triazol-3-yl]pyridin-2-yl}-2,3-dihydro-1H-pyrrolo[3,4-c]pyridin-1-one]: the pKi in assay [2] (setting [4]) is 9.00.

As to `CC(C)n1cnnc1-c1cccc(N2Cc3c(cc(C4CC4)nc3CN)C2=O)n1` [Example 31, 4-(aminomethyl)-6-cyclopropyl-2-{6-[4-(propan-2-yl)-4H-1,2,4-triazol-3-yl]pyridin-2-yl}-2,3-dihydro-1H-pyrrolo[3,4-c]pyridin-1-one], in assay [2] (setting [4]), the pKi is 9.18.

Regarding `CNCc1nc(N(C)C)cc2c1CN(c1cccc(-c3nncn3[C@@H](C)C(C)C)n1)C2=O` [Example 178], the pKi in assay [2] (HPK1 mobility shift assay) was 9.77.

For `CNCc1nc(N2[C@H](C)CC[C@@H]2C)cc2c1CN(c1cccc(-c3nncn3C(C)C)n1)C2=O` [Example 27, 6-[(2R,5S)-2,5-dimethylpyrrolidin-1-yl]-4-[(methylamino)methyl]-2-{6-[4-(propan-2-yl)-4H-1,2,4-triazol-3-yl]pyridin-2-yl}-2,3-dihydro-1H-pyrrolo[3,4-c]pyridin-1-one], in assay [2] (setting [4]), the pKi was 9.72.

On to `CNCc1nccc2c1CN(c1cccc(-c3nncn3C(C)C)n1)C2=O` [Example 23, 4-[(methylamino)methyl]-2-{6-[4-(propan-2-yl)-4H-1,2,4-triazol-3-yl]pyridin-2-yl}-2,3-dihydro-1H-pyrrolo[3,4-c]pyridin-1-one], for which the pKi in assay [2] (setting [4]) was 6.85.

Take `CNCc1nc(C(F)(F)F)cc2c1CN(c1cccc(-c3nncn3C(C)C)n1)C2=O` [Example 52, 4-[(methylamino)methyl]-2-{6-[4-(propan-2-yl)-4H-1,2,4-triazol-3-yl]pyridin-2-yl}-6-(trifluoromethyl)-2,3-dihydro-1H-pyrrolo[3,4-c]pyridin-1-one]: the pKi in assay [2] (setting [4]) was 7.05.

In the case of `CCn1c(C)nnc1-c1cccc(N2Cc3c(cc(N4CCC[C@H]4C)nc3CNC)C2=O)n1` [Example 121, 2-[6-(4-ethyl-5-methyl-4H-1,2,4-triazol-3-yl)pyridin-2-yl]-4-[(methylamino)methyl]-6-[(2R)-2-methylpyrrolidin-1-yl]-2,3-dihydro-1H-pyrrolo[3,4-c]pyridin-1-one], in assay [1] (setting [3]), the pIC50 is 7.21.

Consider `CC[C@H](CO)n1cnnc1-c1cccc(N2Cc3c(cc(C4(C)CC4)nc3CNC)C2=O)n1` (single isomer, unassigned) [Example 183], for which, in assay [2] (HPK1 mobility shift assay), the pKi was 9.46.

For `CCNc1cc2c(c(CNC)n1)CN(c1cccc(-c3nncn3C(C)C)n1)C2=O` [Example 77, 6-(ethylamino)-4-[(methylamino)methyl]-2-{6-[4-(propan-2-yl)-4H-1,2,4-triazol-3-yl]pyridin-2-yl}-2,3-dihydro-1H-pyrrolo[3,4-c]pyridin-1-one], in assay [2] (HPK1 mobility shift assay), the pKi was 9.17.

`CNCc1nc(C2(C)CC2)cc2c1CN(c1cccc(-c3nncn3C3CCCC3)n1)C2=O` [Example 179]: the pKi in assay [2] (HPK1 mobility shift assay) is 9.33.

With `CCC(CC(F)(F)F)n1cnnc1-c1cccc(N2Cc3c(cc(C4(C)CC4)nc3CNC)C2=O)n1` (single isomer, unassigned) [Example 180], the pKi in assay [2] (HPK1 mobility shift assay) was 7.60.

`CNCc1nc(C2(C)CC2)cc2c1CN(c1cccc(-c3nnc(C)n3C3CCC3)n1)C2=O` [Example 187]: the pKi in assay [2] (HPK1 mobility shift assay) was 7.59.

As for `Cc1nnc(-c2cccc(N3Cc4c(cc(N5CCCC5(C)C)nc4CN)C3=O)n2)n1C(C)C` [Example 164], the pIC50 in assay [1] (setting [3]) is 7.19.

Turning to `CCCn1c(C)nnc1-c1cccc(N2Cc3c(cc(N4CCC[C@H]4C)nc3CNC)C2=O)n1` [Example 62, 4-[(methylamino)methyl]-2-[6-(5-methyl-4-propyl-4H-1,2,4-triazol-3-yl)pyridin-2-yl]-6-[(2R)-2-methylpyrrolidin-1-yl]-2,3-dihydro-1H-pyrrolo[3,4-c]pyridin-1-one], the pIC50 in assay [1] (setting [5]) is 7.38.

As to `CNCc1nc(N(C)C)cc2c1CN(c1cccc(-c3nncn3[C@H](C)C(C)C)n1)C2=O` [Example 182], the pKi in assay [2] (HPK1 mobility shift assay) was 9.43.

On to `CCCn1c(CC)nnc1-c1cccc(N2Cc3c(cc(N4CCC[C@H]4C)nc3CN)C2=O)n1` [Example 186], for which, in assay [2] (HPK1 mobility shift assay), the pKi is 8.72.

As for `CCc1nnc(-c2cccc(N3Cc4c(cc(N(C)C(C)C)nc4CNC)C3=O)n2)n1CC` [Example 67, 2-[6-(4,5-diethyl-4H-1,2,4-triazol-3-yl)pyridin-2-yl]-4-[(methylamino)methyl]-6-[methyl(propan-2-yl)amino]-2,3-dihydro-1H-pyrrolo[3,4-c]pyridin-1-one], in assay [2] (setting [4]), the pKi was 8.89.

For the compound `CNCc1nc(N2CCCC2)cc2c1CN(c1cccc(-c3nncn3[C@@H](C)CC(F)(F)F)n1)C2=O` [Example 15, 4-[(methylamino)methyl]-6-(pyrrolidin-1-yl)-2-(6-{4-[(2S)-4,4,4-trifluorobutan-2-yl]-4H-1,2,4-triazol-3-yl}pyridin-2-yl)-2,3-dihydro-1H-pyrrolo[3,4-c]pyridin-1-one], the pIC50 in assay [1] (setting [5]) was 6.87.

As for `CCC(CC(F)(F)F)n1cnnc1-c1cccc(N2Cc3c(cc(C4(C)CC4)nc3CNC)C2=O)n1` (single isomer, unassigned) [Example 181], the pKi in assay [2] (HPK1 mobility shift assay) is 9.89.

Regarding `CC[C@@H](CO)n1cnnc1-c1cccc(N2Cc3c(cc(C4(C)CC4)nc3CNC)C2=O)n1` (single isomer, unassigned) [Example 184], the pKi in assay [2] (HPK1 mobility shift assay) was 8.94.

Turning to `CCCn1c(C)nnc1-c1cccc(N2Cc3c(cc(N4CCC[C@@H]4C)nc3CN)C2=O)n1` [Example 159], the pIC50 in assay [1] (setting [3]) is 6.95.

`Cc1nnc(-c2cccc(N3Cc4c(cc(C5(C)CC5)nc4CN)C3=O)n2)n1C1CCC1` [Example 188]: the pKi in assay [2] (HPK1 mobility shift assay) is 7.39.

As for `CCCn1c(C)nnc1-c1cccc(N2Cc3c(cc(N4CCC[C@@H]4C)nc3CNC)C2=O)n1` [Example 134, 4-[(methylamino)methyl]-2-[6-(5-methyl-4-propyl-4H-1,2,4-triazol-3-yl)pyridin-2-yl]-6-[(2S)-2-methylpyrrolidin-1-yl]-2,3-dihydro-1H-pyrrolo[3,4-c]pyridin-1-one], the pIC50 in assay [1] (setting [3]) was 7.28.
